From ChEMBL document CHEMBL5370540, “Discovery of pyrimidine-5-carboxamide derivatives as novel salt-inducible kinases (SIKs) inhibitors for inflammatory bowel disease (IBD) treatment” (Eur J Med Chem, 2023)
Activity calls are given as the source filed them. The rule behind the calls is not given here.

What was measured:
[1] = system: BMDM; experiment: Effect on TLR-stimulated CREB phosphorylation at Ser133 residue in C57BL/6J mouse BMDM cells at 500 nM preincubated for 1 hr followed by LPS stimulation measured upto 60 mins by Western blot analysis; type: functional, cell-based; conditions: time 2.0 hrs
[2] = target: Serine/threonine-protein kinase SIK3 (Homo sapiens, UniProt Q9Y2K2); experiment: Inhibition of SIK3 (unknown origin)
[3] = system: Mus musculus; experiment: Antiinflammatory activity in DSS-induced colitis C57BL/6J mouse model assessed as decrease in thickening of inherent base layer at 50 to 100 mg/kg, po measured after 12 days by H&E staining based analysis; type: functional, organism-based; conditions: dose 50-100 mg/kg, time 12.0 day
[4] = target: Serine/threonine-protein kinase SIK1 (Homo sapiens, UniProt P57059); experiment: Inhibition of SIK1 (unknown origin)
[5] = target: Serine/threonine-protein kinase SIK2 (Mus musculus) (UniProt Q8CFH6); experiment: Inhibition of SIK2 in C57BL/6J mouse BMDM cells assessed as increase in Nurr77 mRNA level at 500 nM preincubated for 1 hr followed by LPS stimulation measured for 2 to 4 hrs by qPCR analysis; type: cell-based; conditions: time 3-5 hrs
[6] = target: Activated CDC42 kinase 1 (Homo sapiens) (UniProt Q07912); experiment: Inhibition of ACK1 (unknown origin) at 1 uM
[7] = system: Mus musculus; experiment: Antiinflammatory activity in DSS-induced colitis C57BL/6J mouse model assessed as increase in body weight at 7.5 to 30 mg/kg, ip; type: functional, organism-based; conditions: dose 7.5-30 mg/kg
[8] = target: Tyrosine-protein kinase ABL2 (Homo sapiens) (UniProt P42684); experiment: Inhibition of ARG (unknown origin) at 1 uM
[9] = system: BMDM; experiment: Anti-inflammatory activity against C57BL/6J mouse BMDM cells assessed as decrease in IL-12 level at 500 nM preincubated for 1 hr followed by LPS stimulation measured after 4 to 8 hrs by ELISA method; type: functional, cell-based; conditions: time 5-9 hrs
[10] = target: Tyrosine-protein kinase HCK (Homo sapiens) (UniProt P08631); experiment: Inhibition of HcK (unknown origin) at 1 uM
[11] = system: BMDM; experiment: Anti-inflammatory activity against C57BL/6J mouse BMDM cells assessed as decrease in IL-12 level upto 500 nM preincubated for 1 hr followed by LPS stimulation measured after 8 hrs by ELISA method; type: functional, cell-based; conditions: time 9.0 hrs
[12] = system: Mus musculus; experiment: Antiinflammatory activity in DSS-induced colitis C57BL/6J mouse model assessed as decrease in disease activity index at 50 to 100 mg/kg, po; type: functional, organism-based; conditions: dose 50-100 mg/kg
[13] = target: Tyrosine-protein kinase Blk (Homo sapiens) (UniProt P51451); experiment: Inhibition of BlK (unknown origin) at 1 uM
[14] = Half life in Sprague-Dawley rat at 5 mg/kg, iv measured upto 24 hrs by LC/MS/MS analysis; type: ADME, organism-based; conditions: in vivo
[15] = target: Tyrosine-protein kinase Fgr (Homo sapiens) (UniProt P09769); experiment: Inhibition of Fgr (unknown origin) at 1 uM
[16] = Tmax in Sprague-Dawley rat at 10 mg/kg, po measured upto 24 hrs by LC/MS/MS analysis; type: ADME, organism-based; conditions: in vivo
[17] = target: Tyrosine-protein kinase ABL1 (Homo sapiens) (UniProt P00519); experiment: Inhibition of Abl (unknown origin) at 1 uM
[18] = Metabolic stability in human liver microsomes assessed as half life; type: ADME, Microsome
[19] = system: Mus musculus; experiment: Antiinflammatory activity in DSS-induced colitis C57BL/6J mouse model assessed as increase in body weight at 50 to 100 mg/kg, po; type: functional, organism-based; conditions: dose 50-100 mg/kg
[20] = target: Tyrosine-protein kinase TXK (Homo sapiens) (UniProt P42681); experiment: Inhibition of Txk (unknown origin) at 1 uM
[21] = target: Tyrosine-protein kinase Lck (Homo sapiens) (UniProt P06239); experiment: Inhibition of LcK (unknown origin) at 1 uM
[22] = target: Protein-tyrosine kinase 6 (Homo sapiens) (UniProt Q13882); experiment: Inhibition of BRK (unknown origin) at 1 uM
[23] = target: Proto-oncogene tyrosine-protein kinase Src (Homo sapiens) (UniProt P12931); experiment: Inhibition of SRC (1 to 530 residues)(unknown origin) at 1 uM
[24] = Clearance in Sprague-Dawley rat at 10 mg/kg, po measured upto 24 hrs by LC/MS/MS analysis; type: ADME, organism-based; conditions: in vivo
[25] = AUC (0 to t) in Sprague-Dawley rat at 5 mg/kg, iv measured upto 24 hrs by LC/MS/MS analysis; type: ADME, organism-based; design: time < 24 hrs, dose 5 mg/kg, route iv; conditions: in vivo
[26] = Selectivity ratio of IC50 for SIK3 (unknown origin) to IC50 for SIK2 (unknown origin)
[27] = target: Serine/threonine-protein kinase SIK2 (Mus musculus) (UniProt Q8CFH6); experiment: Inhibition of SIK2 in C57BL/6J mouse BMDM cells assessed as increase in c-FOS mRNA level at 500 nM preincubated for 1 hr followed by LPS stimulation measured for 1 hr by qPCR analysis; type: cell-based; conditions: time 2.0 hrs
[28] = target: Tyrosine-protein kinase BTK (Homo sapiens) (UniProt Q06187); experiment: Inhibition of BTK (unknown origin) at 1 uM
[29] = Tmax in Sprague-Dawley rat at 5 mg/kg, iv measured upto 24 hrs by LC/MS/MS analysis; type: ADME, organism-based; conditions: in vivo
[30] = target: Serine/threonine-protein kinase SIK2 (Mus musculus) (UniProt Q8CFH6); experiment: Inhibition of SIK2 in C57BL/6J mouse BMDM cells assessed as increase in LIGHT mRNA level at 500 nM preincubated for 1 hr followed by LPS stimulation measured upto 8 hrs by qPCR analysis; type: cell-based; conditions: time <= 9.0 hrs
[31] = target: Proto-oncogene tyrosine-protein kinase Src (Homo sapiens) (UniProt P12931); experiment: Inhibition of cSRC (unknown origin) at 1 uM
[32] = Cmax in Sprague-Dawley rat at 5 mg/kg, iv measured upto 24 hrs by LC/MS/MS analysis; type: ADME, organism-based; design: dose 5 mg/kg, time < 24 hrs, route iv; conditions: in vivo
[33] = target: Serine/threonine-protein kinase SIK2 (Mus musculus) (UniProt Q8CFH6); experiment: Inhibition of SIK2 in C57BL/6J mouse BMDM cells assessed as increase in IL-10 mRNA level at 500 nM preincubated for 1 hr followed by LPS stimulation measured for 1 hr by qPCR analysis; type: cell-based; conditions: time 2.0 hrs
[34] = system: Mus musculus; experiment: Antiinflammatory activity in DSS-induced colitis C57BL/6J mouse model assessed as increase in colon length at 7.5 to 30 mg/kg, ip measured after 12 days; type: functional, organism-based; conditions: dose 7.5-30 mg/kg, time 12.0 day
[35] = target: Serine/threonine-protein kinase SIK2 (Mus musculus) (UniProt Q8CFH6); experiment: Inhibition of SIK2 in C57BL/6J mouse BMDM cells assessed as increase in arginase 1 mRNA level at 500 nM preincubated for 1 hr followed by LPS stimulation measured upto 8 hrs by qPCR analysis; type: cell-based; conditions: time <= 9.0 hrs
[36] = Clearance in Sprague-Dawley rat at 5 mg/kg, iv measured upto 24 hrs by LC/MS/MS analysis; type: ADME, organism-based; conditions: in vivo
[37] = Selectivity ratio of IC50 for SIK1 (unknown origin) to IC50 for SIK2 (unknown origin)
[38] = target: Serine/threonine-protein kinase SIK2 (Mus musculus) (UniProt Q8CFH6); experiment: Inhibition of SIK2 in C57BL/6J mouse BMDM cells assessed as increase in Nurr77 mRNA level at 500 nM preincubated for 1 hr followed by LPS stimulation measured for 1 hr by qPCR analysis; type: cell-based; conditions: time 2.0 hrs
[39] = Toxicity in DSS-induced colitis C57BL/6J mouse model at 30 mg/kg, ip; type: organism-based; conditions: in vivo

Chain of Serine/threonine-protein kinase SIK2 (Mus musculus) (Q8CFH6 whole entry): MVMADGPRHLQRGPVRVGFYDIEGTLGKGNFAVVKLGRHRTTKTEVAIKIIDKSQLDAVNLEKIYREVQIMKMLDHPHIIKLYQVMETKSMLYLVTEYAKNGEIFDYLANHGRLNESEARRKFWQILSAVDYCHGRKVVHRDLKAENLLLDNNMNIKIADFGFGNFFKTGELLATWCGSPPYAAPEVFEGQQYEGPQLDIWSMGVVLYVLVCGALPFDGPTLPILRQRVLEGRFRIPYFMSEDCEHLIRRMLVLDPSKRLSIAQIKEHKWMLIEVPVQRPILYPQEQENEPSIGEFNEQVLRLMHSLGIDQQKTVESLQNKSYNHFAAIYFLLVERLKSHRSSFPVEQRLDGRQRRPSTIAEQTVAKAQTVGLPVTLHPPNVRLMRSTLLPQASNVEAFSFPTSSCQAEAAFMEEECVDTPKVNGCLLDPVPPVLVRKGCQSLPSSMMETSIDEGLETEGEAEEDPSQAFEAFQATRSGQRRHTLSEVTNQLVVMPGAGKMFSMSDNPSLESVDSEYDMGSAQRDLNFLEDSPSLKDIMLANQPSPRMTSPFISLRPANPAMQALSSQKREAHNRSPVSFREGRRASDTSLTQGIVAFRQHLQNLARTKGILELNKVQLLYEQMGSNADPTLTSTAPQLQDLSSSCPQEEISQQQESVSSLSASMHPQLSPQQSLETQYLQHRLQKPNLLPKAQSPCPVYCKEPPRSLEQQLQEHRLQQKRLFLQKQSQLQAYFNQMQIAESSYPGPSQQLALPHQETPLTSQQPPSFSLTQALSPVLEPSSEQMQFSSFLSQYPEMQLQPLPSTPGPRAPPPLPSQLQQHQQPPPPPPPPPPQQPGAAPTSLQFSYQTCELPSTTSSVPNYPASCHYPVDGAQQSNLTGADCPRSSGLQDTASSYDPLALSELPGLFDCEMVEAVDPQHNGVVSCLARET
Chain of Proto-oncogene tyrosine-protein kinase Src (Homo sapiens) (P12931 2-536 limits assumed): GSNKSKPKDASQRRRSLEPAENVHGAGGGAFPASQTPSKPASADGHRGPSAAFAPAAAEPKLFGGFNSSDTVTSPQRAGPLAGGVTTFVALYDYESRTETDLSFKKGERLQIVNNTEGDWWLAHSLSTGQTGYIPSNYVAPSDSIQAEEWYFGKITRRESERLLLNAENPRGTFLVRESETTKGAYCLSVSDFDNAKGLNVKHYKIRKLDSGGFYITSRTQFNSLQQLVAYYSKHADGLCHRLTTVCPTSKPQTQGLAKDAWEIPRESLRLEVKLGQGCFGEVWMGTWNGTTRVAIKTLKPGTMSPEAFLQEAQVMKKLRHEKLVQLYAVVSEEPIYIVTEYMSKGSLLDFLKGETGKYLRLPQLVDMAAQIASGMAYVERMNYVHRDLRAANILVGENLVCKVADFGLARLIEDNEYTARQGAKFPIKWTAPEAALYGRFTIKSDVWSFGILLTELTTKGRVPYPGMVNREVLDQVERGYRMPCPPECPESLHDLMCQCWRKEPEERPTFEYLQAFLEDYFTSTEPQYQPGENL
Chain of Serine/threonine-protein kinase SIK1 (P57059 whole entry): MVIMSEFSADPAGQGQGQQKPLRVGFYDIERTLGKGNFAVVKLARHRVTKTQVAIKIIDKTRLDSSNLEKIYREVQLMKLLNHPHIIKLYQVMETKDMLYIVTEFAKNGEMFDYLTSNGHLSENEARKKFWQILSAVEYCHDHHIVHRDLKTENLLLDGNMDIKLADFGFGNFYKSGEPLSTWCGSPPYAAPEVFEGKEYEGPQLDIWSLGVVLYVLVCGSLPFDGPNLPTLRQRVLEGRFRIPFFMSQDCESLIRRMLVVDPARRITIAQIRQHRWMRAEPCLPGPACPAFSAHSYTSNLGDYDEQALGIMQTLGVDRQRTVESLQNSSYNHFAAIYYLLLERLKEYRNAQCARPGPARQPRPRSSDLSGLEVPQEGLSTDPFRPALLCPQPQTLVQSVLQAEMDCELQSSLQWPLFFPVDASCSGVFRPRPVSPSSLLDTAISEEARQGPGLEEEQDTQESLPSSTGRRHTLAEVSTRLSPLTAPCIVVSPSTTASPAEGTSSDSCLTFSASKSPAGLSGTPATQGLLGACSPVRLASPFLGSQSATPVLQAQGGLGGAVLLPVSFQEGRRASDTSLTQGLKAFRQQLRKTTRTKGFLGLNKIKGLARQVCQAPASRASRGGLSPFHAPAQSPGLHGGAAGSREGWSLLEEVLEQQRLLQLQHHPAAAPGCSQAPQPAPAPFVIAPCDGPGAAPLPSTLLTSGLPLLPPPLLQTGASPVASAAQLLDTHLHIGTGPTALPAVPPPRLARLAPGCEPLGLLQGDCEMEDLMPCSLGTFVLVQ
Chain of Serine/threonine-protein kinase SIK3 (Q9Y2K2 whole entry): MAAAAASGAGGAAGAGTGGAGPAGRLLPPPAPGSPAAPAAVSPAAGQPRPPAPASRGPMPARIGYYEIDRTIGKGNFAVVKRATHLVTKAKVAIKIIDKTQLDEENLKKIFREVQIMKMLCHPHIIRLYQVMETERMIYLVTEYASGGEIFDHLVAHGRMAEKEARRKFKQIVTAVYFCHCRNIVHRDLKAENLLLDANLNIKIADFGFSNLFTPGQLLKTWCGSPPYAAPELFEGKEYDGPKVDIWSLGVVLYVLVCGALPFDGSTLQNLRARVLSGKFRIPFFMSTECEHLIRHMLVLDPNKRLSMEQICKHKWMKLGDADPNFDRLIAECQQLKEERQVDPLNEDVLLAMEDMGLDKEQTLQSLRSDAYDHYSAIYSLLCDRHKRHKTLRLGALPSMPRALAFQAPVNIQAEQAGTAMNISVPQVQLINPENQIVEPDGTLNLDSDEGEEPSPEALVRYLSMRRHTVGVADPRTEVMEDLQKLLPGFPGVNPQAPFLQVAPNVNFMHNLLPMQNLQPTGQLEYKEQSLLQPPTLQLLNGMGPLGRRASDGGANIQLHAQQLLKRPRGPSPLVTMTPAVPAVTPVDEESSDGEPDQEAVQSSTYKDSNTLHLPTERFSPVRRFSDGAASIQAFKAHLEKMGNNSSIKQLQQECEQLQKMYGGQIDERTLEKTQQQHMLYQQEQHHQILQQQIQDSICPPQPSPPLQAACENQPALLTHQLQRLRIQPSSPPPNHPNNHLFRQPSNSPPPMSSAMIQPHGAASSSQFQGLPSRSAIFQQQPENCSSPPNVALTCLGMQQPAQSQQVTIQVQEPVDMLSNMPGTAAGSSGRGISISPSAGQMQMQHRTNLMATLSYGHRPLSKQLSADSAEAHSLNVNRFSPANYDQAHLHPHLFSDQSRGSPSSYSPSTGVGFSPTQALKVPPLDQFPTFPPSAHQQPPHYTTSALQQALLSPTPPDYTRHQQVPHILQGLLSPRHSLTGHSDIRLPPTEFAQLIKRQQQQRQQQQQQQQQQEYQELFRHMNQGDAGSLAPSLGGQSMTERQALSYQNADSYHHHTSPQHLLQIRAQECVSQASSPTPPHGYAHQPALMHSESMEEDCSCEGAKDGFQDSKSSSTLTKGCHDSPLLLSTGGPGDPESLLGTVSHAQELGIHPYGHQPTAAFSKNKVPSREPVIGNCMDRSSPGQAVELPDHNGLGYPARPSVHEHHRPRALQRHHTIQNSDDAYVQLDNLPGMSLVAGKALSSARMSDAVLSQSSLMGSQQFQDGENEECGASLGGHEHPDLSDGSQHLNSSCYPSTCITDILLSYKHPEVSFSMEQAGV
Chain of Tyrosine-protein kinase BTK (Homo sapiens) (Q06187 whole entry): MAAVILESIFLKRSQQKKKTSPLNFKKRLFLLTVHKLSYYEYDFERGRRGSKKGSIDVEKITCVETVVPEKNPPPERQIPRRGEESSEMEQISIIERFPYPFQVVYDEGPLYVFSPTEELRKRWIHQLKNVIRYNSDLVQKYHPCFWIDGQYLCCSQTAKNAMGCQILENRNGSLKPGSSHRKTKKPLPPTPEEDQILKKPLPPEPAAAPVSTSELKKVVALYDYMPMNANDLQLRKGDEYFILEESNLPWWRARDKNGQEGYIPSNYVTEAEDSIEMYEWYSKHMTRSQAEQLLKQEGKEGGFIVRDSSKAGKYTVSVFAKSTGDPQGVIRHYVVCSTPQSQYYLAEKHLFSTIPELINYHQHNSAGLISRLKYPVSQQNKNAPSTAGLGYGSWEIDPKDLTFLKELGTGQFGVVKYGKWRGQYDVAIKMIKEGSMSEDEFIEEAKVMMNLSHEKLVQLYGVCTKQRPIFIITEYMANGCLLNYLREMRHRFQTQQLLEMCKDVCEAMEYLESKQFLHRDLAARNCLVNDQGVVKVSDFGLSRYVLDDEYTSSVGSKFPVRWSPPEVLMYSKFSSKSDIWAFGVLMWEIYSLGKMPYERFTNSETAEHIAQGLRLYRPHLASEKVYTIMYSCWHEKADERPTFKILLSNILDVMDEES
Chain of Tyrosine-protein kinase HCK (Homo sapiens) (P08631 2-526 limits assumed): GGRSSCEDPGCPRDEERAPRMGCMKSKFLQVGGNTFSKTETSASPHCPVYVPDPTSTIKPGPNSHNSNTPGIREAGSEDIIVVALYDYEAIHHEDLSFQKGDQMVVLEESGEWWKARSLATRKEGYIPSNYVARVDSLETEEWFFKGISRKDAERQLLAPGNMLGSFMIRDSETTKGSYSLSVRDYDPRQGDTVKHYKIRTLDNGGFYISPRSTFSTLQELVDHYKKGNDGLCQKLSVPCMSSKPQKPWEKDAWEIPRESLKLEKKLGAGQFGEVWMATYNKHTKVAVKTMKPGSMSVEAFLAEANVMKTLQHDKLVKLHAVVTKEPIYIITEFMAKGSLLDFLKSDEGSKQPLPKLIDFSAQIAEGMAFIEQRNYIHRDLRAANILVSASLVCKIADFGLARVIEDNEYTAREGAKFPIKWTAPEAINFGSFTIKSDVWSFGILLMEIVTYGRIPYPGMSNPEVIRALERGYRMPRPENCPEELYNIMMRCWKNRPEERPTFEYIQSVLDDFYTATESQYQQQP

## Cc1cccc(F)c1NC(=O)c1cnc(Nc2ccc(N3CCN(C)CC3)c(F)c2)nc1NC1CCC1
[1]
  Activity: inactive
[2]
  IC50: 146 nM
[3]
  Activity: Active
[4]
  IC50: 24 nM
[5]
  inhibition: inactive
[6]
  inhibition: Active
[7]
  Activity: Active
[8]
  inhibition: Active
[9]
  Activity: inactive
[10]
  inhibition: Active
[11]
  Activity: Active
[12]
  Activity: Active
[13]
  inhibition: Active
[14]
  half-life: 11.5 h
[15]
  inhibition: Active
[16]
  Tmax: 8 h
[17]
  inhibition: Active
[18]
  half-life: > 2 h
[19]
  Activity: Active
[20]
  inhibition: Active
[21]
  inhibition: Active
[22]
  inhibition: Active
[23]
  inhibition: Active
[24]
  CL/F: 11.7 mL/min/kg
[25]
  AUC(0-t) at 24 h: 20300 ng·h/mL
[26]
  Ratio IC50: 18.3
[27]
  inhibition: Active
[28]
  inhibition: Active
[29]
  Tmax: 6 min
[30]
  inhibition: Active
[31]
  inhibition: Active
[32]
  Cmax: 12000 ng/mL
[33]
  inhibition: Active
[34]
  Activity: Active
[35]
  inhibition: Active
[36]
  clearance: 3.33 mL/min/kg
[37]
  Ratio IC50: 3
[38]
  inhibition: Active
[39]
  Activity: Toxic
